Experimental data reported in ChEMBL document CHEMBL1201862, “PubChem BioAssay data set” (2004).
Calls of active or inactive are those of the source.

Assays:
[1] = luciferase reporter signal suppression in cells – H4 neuroglioma cells, luminescence, dose response (AID 1990); assay type: functional, cell-based
[2] = luciferase reporter signal reduction – luminescence, H4-C neuroglioblastoma cells, dose response (AID 2458); assay type: functional, cell-based;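 further: H4 neuroglioblastoma cells stably carrying a luciferase reporter gene fusion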
[3] = system: BJ; assay: BJ-TERT fibroblast viability loss – cell-based, RAS-independent, luminescence, dose response (AID 1933); assay type: functional, Homo sapiens; settings: Homo sapiens, BJ
[4] = cells; assay type: functional, cell-based
[5] = Luminescence Cell-Based Dose Response HTS to Identify Inhibitors of 5'UTR Stem-Loop Driven Prion Protein mRNA Translation in H4 Neuroglioblastoma Cells. [Related pubchem assays: 1827 (Project Summary), 1813 (Primary HTS)]; assay type: functional
[6] = alpha-synuclein stem-loop luciferase translation blockers – H4 neuroglioma cells, luminescence, confirmation (AID 1988); assay type: functional, cell-based
[7] = system: BJ; assay: cells; assay type: functional, cell-based, Homo sapiens; settings: Homo sapiens, BJ
[8] = DRD fibroblast viability loss – cell-based, non-viral oncogenic, luminescence, dose response (AID 1934); assay type: functional; settings: Homo sapiens
[9] = alpha-synuclein stem-loop translation blockers – luminescence, H4 neuroglioblastoma cells, dose confirmation, confirmation (AID 2454); assay type: functional, cell-based;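 further: H4 neuroglioblastoma cells carrying an alpha-synuclein 5'UTR luciferase reporter; potency for inhibition of the luciferase signal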
[10] = HEK-293T viability loss after treatment – luminescence, T-cell screen hits, cytotoxicity control for TCR NF-kB inhibitor project, dose response (AID 489026); assay type: functional, cell-based;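 further: cells exposed to compound about 14 hours before the viability readout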
[11] = biological target: T1, Microphthalmia-associated transcription factor (Homo sapiens, UniProt O75030); assay: reducers of TRPM1 reporter luminescence, concentration series – cell-based, SK-MEL-5, cherry-picked, set 3, MITF inhibitor project, dose response (AID 493073); assay type: functional;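 further: SK-MEL-5 melanoma cells with luciferase driven by the MITF target TRPM1 promoter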
T1 sequence (O75030 whole entry): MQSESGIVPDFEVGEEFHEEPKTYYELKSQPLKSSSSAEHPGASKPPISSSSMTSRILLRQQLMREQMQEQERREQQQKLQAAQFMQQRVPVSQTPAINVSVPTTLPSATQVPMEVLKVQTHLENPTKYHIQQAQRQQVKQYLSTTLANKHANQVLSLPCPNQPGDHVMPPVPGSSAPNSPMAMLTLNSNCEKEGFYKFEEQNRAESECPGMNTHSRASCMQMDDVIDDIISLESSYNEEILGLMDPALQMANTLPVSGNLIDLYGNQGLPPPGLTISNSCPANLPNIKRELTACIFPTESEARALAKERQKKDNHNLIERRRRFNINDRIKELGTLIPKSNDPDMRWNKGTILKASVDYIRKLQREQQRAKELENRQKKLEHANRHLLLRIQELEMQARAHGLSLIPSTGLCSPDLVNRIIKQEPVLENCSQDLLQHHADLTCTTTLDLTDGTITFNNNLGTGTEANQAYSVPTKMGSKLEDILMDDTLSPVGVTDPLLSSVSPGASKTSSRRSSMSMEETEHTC

[12] = system: A-375; assay: MITF: Counter assay: A375 proliferation Measured in Cell-Based System Using Plate Reader - 2084-03_Inhibitor_Dose_DryPowder_Activity. [Related pubchem assays (depositor defined):AID488944]; assay type: functional; settings: Homo sapiens
[13] = system: A-375; assay: proliferation inhibition in MITF-low A375 cells – cell-based, cherry-pick samples, set 2, counter-screen for MITF modulator project, dose response (AID 540335); assay type: functional; settings: Homo sapiens
[14] = cells; assay type: functional, cell-based; remark: listed apart in the source
[15] = biological target: Nuclear receptor subfamily 0 group B member 1 (Homo sapiens, UniProt P51843); assay type: functional, cell-based;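 further: HEK293T cells transfected with SF-1 and DAX-1 plus StAR promoter luciferase reporter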
[16] = biological target: Paired box protein Pax-8 (Homo sapiens, UniProt Q06710); assay: PAX8 transcriptional activity inhibition in RMG-I – RMG-I cells, luciferase, cherry-pick, dose response (AID 687027); assay type: functional, cell-based;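 further: luciferase reporter driven by Pax8 target thyroperoxidase promoter measured by SteadyGlo luminescence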
[17] = inhibitors acting on PAX2 in cells – cell-based, plate reader, dry powder samples, selectivity assay for PAX8 inhibitor project, dose response (AID 743048); assay type: functional;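 further: HEK293 cells carrying a WT1 promoter luciferase reporter driven by expressed Pax2; potency is for inhibition of Pax2 driven reporter signal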
[18] = COV362 cell viability loss – plate reader, dry powder, SA12, cytotoxicity control for PAX8 inhibitor project, dose response (AID 743144); assay type: functional, cell-based
[19] = toxicity toward immortalized ovarian surface epithelium – cell-based, plate reader, dry powder samples, cytotoxicity control for PAX8 inhibitor project, dose response (AID 743045); assay type: functional
[20] = A2780 cell killing – plate reader, dry powder samples, cytotoxicity control, dose response (AID 743046); assay type: functional, cell-based
[21] = OVCAR-3 cell viability loss – plate reader, dry powder samples, PAX8 inhibitor project, dose response (AID 743044); assay type: functional, cell-based
[22] = PAX5 cellular inhibition readout – cell-based, plate reader, dry powder samples, selectivity assay for PAX8 inhibitor project, dose response (AID 743047); assay type: functional;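 further: HEK293 cells carrying a Pax5 driven CD19 promoter luciferase reporter; potency of inhibitors that lower reporter luminescence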
[23] = IGROV1 cell killing – plate reader, dry powder samples, PAX8 inhibitor project, dose response (AID 743043); assay type: functional, cell-based; settings: IGROV-1
[24] = OVCAR4 cell viability loss – plate reader, dry powder, SA11, cytotoxicity control for PAX8 inhibitor project, dose response (AID 743150); assay type: functional, cell-based; settings: OVCAR-4
[25] = COV434 cell viability loss – plate reader, dry powder, SA7, cytotoxicity control for PAX8 inhibitor project, dose response (AID 743145); assay type: functional, cell-based
[26] = OV-90 cell viability loss – plate reader, dry powder, SA8, PAX8 inhibitor project, dose response (AID 743149); assay type: functional, cell-based
[27] = PAX8-dependent cell viability loss – plate reader, dry powder, dose response (AID 743049); assay type: functional, cell-based
[28] = biological target: Lysine-specific demethylase 4C (Homo sapiens, UniProt Q9H3R0); assay: inhibition of JMJD2C H3K9me3 demethylation – biochemical, DELFIA europium, cherry-picked samples, dose response (AID 488835); assay type: functional
[29] = microbe, parasite or virus in culture; assay type: functional; settings: Mycobacterium tuberculosis
[30] = biological target: Glucose-6-phosphate 1-dehydrogenase (Homo sapiens, UniProt P11413); assay: inhibition of Homo sapiens G6PD, dose series – biochemical, fluorescence, selectivity assay for P. falciparum G6PD inhibitor project, dose response (AID 504792); assay type: functional
[31] = biological target: Heat shock protein HSP 90-alpha (Homo sapiens, UniProt P07900); assay type: functional, organism-based
[32] = biological target: Voltage-gated inwardly rectifying potassium channel KCNH2 (Homo sapiens, UniProt Q12809); settings: Potency;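 further: confirmatory quantitative high-throughput screen measuring inhibition of hERG channel activity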
[33] = biological target: T2, Endoribonuclease toxin MazF (Escherichia coli K-12, UniProt P0AE70); assay: activation of MazEF endoribonuclease cleavage – biochemical, fluorescence, single-stranded RNA substrate, uHTS hits, dose response (AID 588481); assay type: functional
[34] = biological target: T2, Endoribonuclease toxin MazF; assay: substrate-only fluorescence increase artefacts – biochemical, single-stranded RNase substrate, counter-screen for MazEF activator project, dose response (AID 588502); assay type: functional

T2 sequence (P0AE70 whole entry): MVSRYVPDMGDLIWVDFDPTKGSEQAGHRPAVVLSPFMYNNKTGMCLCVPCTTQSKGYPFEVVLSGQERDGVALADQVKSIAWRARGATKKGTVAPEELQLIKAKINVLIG
Lysine-specific demethylase 4C, sequence (Q9H3R0 whole entry): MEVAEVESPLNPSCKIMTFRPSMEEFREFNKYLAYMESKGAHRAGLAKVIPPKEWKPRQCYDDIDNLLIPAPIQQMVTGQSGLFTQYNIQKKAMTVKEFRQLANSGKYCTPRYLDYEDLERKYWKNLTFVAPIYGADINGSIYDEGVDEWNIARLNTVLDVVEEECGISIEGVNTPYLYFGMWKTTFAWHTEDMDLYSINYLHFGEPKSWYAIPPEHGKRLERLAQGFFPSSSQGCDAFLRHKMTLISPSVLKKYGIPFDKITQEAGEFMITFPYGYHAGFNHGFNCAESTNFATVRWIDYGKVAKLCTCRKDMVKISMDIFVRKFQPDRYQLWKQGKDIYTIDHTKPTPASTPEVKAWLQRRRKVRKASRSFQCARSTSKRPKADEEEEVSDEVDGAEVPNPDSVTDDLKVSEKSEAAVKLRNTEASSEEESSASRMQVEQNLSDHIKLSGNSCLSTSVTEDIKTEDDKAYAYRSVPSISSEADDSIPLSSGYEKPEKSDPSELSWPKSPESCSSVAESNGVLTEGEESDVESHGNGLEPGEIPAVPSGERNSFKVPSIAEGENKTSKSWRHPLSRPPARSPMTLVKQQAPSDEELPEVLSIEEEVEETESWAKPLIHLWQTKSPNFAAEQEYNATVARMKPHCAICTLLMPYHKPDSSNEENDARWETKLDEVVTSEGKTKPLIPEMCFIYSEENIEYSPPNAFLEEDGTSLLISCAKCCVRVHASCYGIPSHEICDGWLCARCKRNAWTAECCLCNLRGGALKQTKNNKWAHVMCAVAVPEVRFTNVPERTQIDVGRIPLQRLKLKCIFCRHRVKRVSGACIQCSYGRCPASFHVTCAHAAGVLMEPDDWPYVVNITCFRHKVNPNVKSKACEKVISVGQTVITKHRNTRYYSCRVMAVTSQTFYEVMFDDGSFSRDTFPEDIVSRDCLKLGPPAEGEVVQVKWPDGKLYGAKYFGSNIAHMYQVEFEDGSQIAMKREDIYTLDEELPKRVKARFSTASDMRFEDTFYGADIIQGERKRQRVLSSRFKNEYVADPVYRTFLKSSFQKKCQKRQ
Voltage-gated inwardly rectifying potassium channel KCNH2, sequence (Q12809 whole entry): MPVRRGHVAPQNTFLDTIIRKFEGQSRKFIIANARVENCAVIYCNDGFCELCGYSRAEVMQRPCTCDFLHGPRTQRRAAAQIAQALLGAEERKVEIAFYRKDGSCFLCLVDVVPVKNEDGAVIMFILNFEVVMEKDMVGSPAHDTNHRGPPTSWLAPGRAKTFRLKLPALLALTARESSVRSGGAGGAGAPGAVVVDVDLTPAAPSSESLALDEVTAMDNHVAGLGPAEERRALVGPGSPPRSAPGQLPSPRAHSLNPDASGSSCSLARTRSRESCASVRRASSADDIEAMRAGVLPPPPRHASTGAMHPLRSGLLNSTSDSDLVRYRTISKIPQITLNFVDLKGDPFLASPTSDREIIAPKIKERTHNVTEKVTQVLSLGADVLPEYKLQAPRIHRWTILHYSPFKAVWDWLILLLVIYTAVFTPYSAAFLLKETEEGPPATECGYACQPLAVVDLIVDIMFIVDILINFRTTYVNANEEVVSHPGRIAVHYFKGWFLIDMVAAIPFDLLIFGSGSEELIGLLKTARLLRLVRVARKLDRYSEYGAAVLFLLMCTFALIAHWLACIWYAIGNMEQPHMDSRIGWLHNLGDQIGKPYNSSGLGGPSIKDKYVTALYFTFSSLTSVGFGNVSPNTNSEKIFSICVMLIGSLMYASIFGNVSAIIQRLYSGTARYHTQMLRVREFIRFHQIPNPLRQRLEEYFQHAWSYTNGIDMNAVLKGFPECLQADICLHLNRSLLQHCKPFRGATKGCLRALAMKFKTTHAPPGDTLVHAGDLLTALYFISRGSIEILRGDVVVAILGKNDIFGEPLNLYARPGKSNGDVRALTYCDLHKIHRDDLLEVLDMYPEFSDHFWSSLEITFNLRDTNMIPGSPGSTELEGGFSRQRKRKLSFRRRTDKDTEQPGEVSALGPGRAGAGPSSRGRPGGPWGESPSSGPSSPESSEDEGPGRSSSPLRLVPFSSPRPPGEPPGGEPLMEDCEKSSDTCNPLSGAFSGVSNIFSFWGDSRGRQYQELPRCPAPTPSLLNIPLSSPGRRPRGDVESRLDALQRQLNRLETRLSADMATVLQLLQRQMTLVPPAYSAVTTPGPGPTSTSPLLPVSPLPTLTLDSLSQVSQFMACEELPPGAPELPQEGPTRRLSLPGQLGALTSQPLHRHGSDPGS
Glucose-6-phosphate 1-dehydrogenase, sequence (P11413 whole entry): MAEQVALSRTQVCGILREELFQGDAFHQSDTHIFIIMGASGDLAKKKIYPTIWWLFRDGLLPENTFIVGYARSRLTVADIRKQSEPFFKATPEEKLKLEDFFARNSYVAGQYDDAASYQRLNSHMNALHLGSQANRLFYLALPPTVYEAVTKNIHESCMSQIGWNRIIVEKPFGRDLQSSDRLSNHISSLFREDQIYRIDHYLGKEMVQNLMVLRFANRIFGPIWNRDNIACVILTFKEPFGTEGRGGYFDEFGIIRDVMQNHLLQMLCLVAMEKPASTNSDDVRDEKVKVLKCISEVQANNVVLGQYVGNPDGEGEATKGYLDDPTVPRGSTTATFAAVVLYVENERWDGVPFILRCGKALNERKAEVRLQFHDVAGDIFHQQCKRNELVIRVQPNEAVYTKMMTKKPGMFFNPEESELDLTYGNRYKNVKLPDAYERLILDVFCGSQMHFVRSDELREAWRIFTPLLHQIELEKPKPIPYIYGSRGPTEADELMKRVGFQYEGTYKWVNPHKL
Nuclear receptor subfamily 0 group B member 1, sequence (P51843 whole entry): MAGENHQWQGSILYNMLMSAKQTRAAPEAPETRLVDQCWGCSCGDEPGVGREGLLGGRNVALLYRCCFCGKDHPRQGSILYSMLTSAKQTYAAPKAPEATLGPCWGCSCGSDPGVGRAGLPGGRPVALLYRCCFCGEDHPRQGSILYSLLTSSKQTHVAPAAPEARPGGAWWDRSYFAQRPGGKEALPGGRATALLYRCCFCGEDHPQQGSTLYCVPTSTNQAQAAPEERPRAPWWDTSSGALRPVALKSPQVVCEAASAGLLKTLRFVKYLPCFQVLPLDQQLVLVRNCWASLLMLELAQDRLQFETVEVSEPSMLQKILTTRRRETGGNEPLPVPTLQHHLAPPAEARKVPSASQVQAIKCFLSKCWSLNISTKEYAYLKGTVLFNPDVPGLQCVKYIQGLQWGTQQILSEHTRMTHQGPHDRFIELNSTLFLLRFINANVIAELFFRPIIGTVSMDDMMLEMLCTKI
Paired box protein Pax-8, sequence (Q06710 whole entry): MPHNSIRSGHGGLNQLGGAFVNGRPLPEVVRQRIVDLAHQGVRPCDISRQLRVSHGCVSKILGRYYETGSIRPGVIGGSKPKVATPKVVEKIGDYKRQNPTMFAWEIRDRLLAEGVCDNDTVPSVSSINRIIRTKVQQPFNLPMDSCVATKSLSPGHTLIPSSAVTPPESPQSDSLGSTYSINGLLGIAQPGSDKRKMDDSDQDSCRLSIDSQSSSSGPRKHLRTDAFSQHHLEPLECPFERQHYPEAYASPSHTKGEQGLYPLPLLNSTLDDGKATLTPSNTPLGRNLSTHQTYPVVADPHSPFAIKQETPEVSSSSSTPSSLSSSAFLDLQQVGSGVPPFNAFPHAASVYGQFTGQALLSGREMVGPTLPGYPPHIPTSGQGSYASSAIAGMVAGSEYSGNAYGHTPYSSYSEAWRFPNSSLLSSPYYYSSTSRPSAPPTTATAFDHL

Question: With COc1cccc(N2CCN(C(=O)c3ccc(C[S+]([O-])c4ccccc4Cl)o3)CC2)c1 (centres undefined) as the compound, how does the EC50 [1] read?
Answer: < 0.1 µM (active)

Question: What about the EC50 [2] of the same compound?
Answer: 0.202 µM (active)

Question: And the EC50 [3]?
Answer: 0.214 µM (active)

Question: What about the EC50 [4] of the same compound?
Answer: 0.345 µM (active)

Question: What about the EC50 [5] of the same compound?
Answer: < 0.1 µM (active)

Question: And the EC50 [6]?
Answer: < 0.1 µM (active)

Question: What about the EC50 [7] of the same compound?
Answer: 37.7 µM (inconclusive)

Question: What about the EC50 [8] of the same compound?
Answer: 0.225 µM (active)

Question: What about the EC50 [9] of the same compound?
Answer: 0.354 µM (active)

Question: What about the IC50 [10] of the same compound?
Answer: 58 µM (inactive)

Question: And the AC50 [11]?
Answer: 0.894 µM (active)

Question: What about the AC50 [12] of the same compound?
Answer: > 35 µM (active)

Question: And the AC50 [13]?
Answer: > 35 µM (active)

Question: And the IC50 [14]?
Answer: > 67.6 µM (inactive)

Question: What about the IC50 [15] of the same compound?
Answer: > 67.6 µM (inactive)

Question: What about the AC50 [16] of the same compound?
Answer: 0.921 µM (active)

Question: What about the AC50 [17] of the same compound?
Answer: 37.5 µM (active)

Question: What about the AC50 [18] of the same compound?
Answer: 2.03 µM (active)

Question: What about the AC50 [19] of the same compound?
Answer: 0.537 µM (active)

Question: And the AC50 [20]?
Answer: 5 µM (active)

Question: And the AC50 [21]?
Answer: 0.478 µM (active)

Question: What about the AC50 [22] of the same compound?
Answer: 3.98 µM (active)

Question: And the AC50 [23]?
Answer: 72 µM (active)

Question: And the AC50 [24]?
Answer: 0.646 µM (active)

Question: And the AC50 [25]?
Answer: 0.684 µM (active)

Question: And the AC50 [26]?
Answer: 2.03 µM (active)

Question: And the AC50 [27]?
Answer: 22 µM (active)

Question: With Cc1ccc(-c2csc(NC(=O)CSc3nc(C)cc(O)n3)n2)cc1 as the compound, how does the AC50 [28] read?
Answer: 10.6 µM (active)

Question: Which results are given for CCCCCCCCn1sccc1=O?
Answer: CC50 [29]: 11.3 µM (active); IC50 [30]: 59.3 µM (inactive); AC50 [31]: 0.649 µM (active); AC50 [32]: 44.7 µM (inconclusive)

Question: What does the source list for Cc1c(C=NNC(=O)c2ccc(Br)cc2)c2ccccn2c1C(=O)c1ccncc1?
Answer: EC50 [33]: > 99 µM (inactive); EC50 [34]: > 99 µM (inactive)
